Molecules are shown by their SMILES.

The target in this experiment is T1, PD-1/PD-L1 (Homo sapiens, UniProt Q9NZQ7).
T1 construct: Recombinant human PD-L1 protein (19-238) with a His-tagged at the C-terminus; purchased AcroBiosystems PD1-H5229 (PD-L1); PD1-H5257 (PD-1)
Put plainly: PD-1/PD-L1 homogeneous time-resolved fluorescence (HTRF) binding assay. The note with it: PD-1/PD-L1 HTRF binding, ~3 nM PD1, 10 nM PD-L1, 25° C., PBS pH 7.4. The protocol: Assays were performed in standard black 384-well polystyrene plates and a final volume was 20 μL. The inhibitor was first serially diluted with DMSO and added to the wells of the plate, followed by the addition of other reaction components. The final concentration of DMSO in the assay was 1%. Assays were performed at 25° C. in PBS buffer (pH 7.4) containing 0.05% Tween-20 and 0.1% BSA. Recombinant human PD-L1 protein (19-238) with a His-tagged at the C-terminus was purchased from AcroBiosystems (PD1-H5229). Recombinant human PD-1 protein (25-167) with an Fc tag at the C-terminus was also purchased from AcroBiosystems (PD1-H5257). The PD-L1 and PD-1 proteins were diluted in assay buffer and then […] of the solution was extracted and added to the wells of the plate. Plates were centrifuged and proteins and inhibitors were preincubated for 40 minutes. After incubation, 0.1 μl of HTRF detection buffer containing europium […] labeled anti-human IgG (PerkinElmer-AD0212), Fc-specific and anti-His SureLight®-Allophycocyanin (APC, PerkinElmer-AD0059H) conjugated antibodies was added. After centrifugation, the plates were incubated at 25° C. for 60 minutes. Data was read in a PHERAstar FS plate reader (665 nm/620 nm ratio). Final concentrations in the assay were ˜3 nM PD1, 10 nM PD-L1, 1 nM europium anti-human IgG, and 20 nM anti-His-allophycocyanin. Activity data were fitted using GraphPad Prism 5_0 software to derive IC50 values for inhibitors.

T1 sequence (Q9NZQ7 19-238): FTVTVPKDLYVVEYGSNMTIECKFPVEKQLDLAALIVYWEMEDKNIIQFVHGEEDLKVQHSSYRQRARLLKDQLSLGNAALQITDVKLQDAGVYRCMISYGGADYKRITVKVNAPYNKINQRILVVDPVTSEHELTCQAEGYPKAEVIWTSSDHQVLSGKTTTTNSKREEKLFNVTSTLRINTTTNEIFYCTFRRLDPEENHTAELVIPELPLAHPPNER

One may read the IC50 as the concentration needed to halve the response being measured. Lower therefore signals inhibition by little substance. As to `COc1nc(-c2cccc(-c3cccc(-c4nc5cc6c(c(C#N)c5o4)CC[C@H]6N4CC[C@@H](C(=O)NS(=O)(=O)C5(C)CC5)C4)c3C)c2Cl)cnc1CN1CC[C@@H](O)C1` [Compound 234], the IC50 was not above 10 nM.
On to `Cc1c(-c2nc3cc4c(c(C#N)c3o2)CC[C@H]4N2CC[C@@H](C(=O)O)C2)cccc1-c1cccc(Nc2nccc3cc(CN4CC[C@@H](O)C4)cnc23)c1Cl` [Compound 235], for which the half-inhibitory concentration (IC50) was not above 10 nM.
Regarding `N#Cc1c2c(cc3nc(-c4cccc(-c5cccc(Nc6nccc7cc(CN8CC[C@@H](O)C8)cnc67)c5Cl)c4Cl)oc13)[C@H](N1CC[C@@H](C(=O)NS(=O)(=O)C3CC3)C1)CC2` [Compound 236], the 50% inhibitory concentration (IC50) is not above 10 nM.
Next, `Cc1c(Nc2nccc3cc(CN4CC[C@@H](O)C4)cnc23)cccc1-c1cccc(-c2nc3cc4c(c(C#N)c3o2)CC[C@H]4N2CC[C@@H](C(=O)NS(=O)(=O)C3CC3)C2)c1Cl` [Compound 237]: not above 10 nM.
The molecule `Cc1c(-c2nc3cc4c(c(C#N)c3o2)CC[C@H]4N2CC[C@@H](C(=O)NS(=O)(=O)C3CC3)C2)cccc1-c1cccc(Nc2nccc3cc(CN4CC[C@@H](O)C4)cnc23)c1Cl` [Compound 238] returned an IC50 not above 10 nM.
Next, `Cc1c(Nc2nccc3cc(CN4CC[C@@H](O)C4)cnc23)cccc1-c1cccc(-c2nc3cc4c(c(C#N)c3o2)CC[C@H]4N2CC[C@@H](C(=O)NS(=O)(=O)C3(C)CC3)C2)c1C` [Compound 239]: not above 10 nM; `CC1(S(=O)(=O)NC(=O)[C@@H]2CCN([C@@H]3CCc4c3cc3nc(-c5cccc(-c6cccc(Nc7nccc8cc(CN9CC[C@@H](O)C9)cnc78)c6Cl)c5Cl)oc3c4C#N)C2)CC1` [Compound 240]: not above 10 nM.
In turn, `Cc1c(Nc2nccc3cc(CN4CC[C@@H](O)C4)cnc23)cccc1-c1cccc(-c2nc3cc4c(c(C#N)c3o2)CC[C@H]4N2CC[C@@H](C(=O)NS(=O)(=O)C3(C)CC3)C2)c1Cl` [Compound 241] gave a 50% inhibitory concentration (IC50) not above 10 nM.
`Cc1c(-c2nc3cc4c(c(C#N)c3o2)CC[C@H]4N2CC[C@@H](C(=O)NS(=O)(=O)C3(C)CC3)C2)cccc1-c1cccc(Nc2nccc3cc(CN4CC[C@@H](O)C4)cnc23)c1Cl` [Compound 242] showed an IC50 not above 10 nM.
With `Cc1c(Nc2nccc3cc(CN4CC[C@@H](O)C4)cnc23)cccc1-c1cccc(-c2cc3cc4c(c(C#N)c3o2)CC[C@@H]4N2CC[C@@H](C(=O)O)C2)c1C` [Compound 243], the IC50 is not above 10 nM.
In turn, `Cc1c(Nc2nccc3cc(CN4CC[C@@H](O)C4)cnc23)cccc1-c1cccc(-c2cc3cc4c(c(C#N)c3o2)CC[C@H]4N2CC[C@@H](C(=O)O)C2)c1C` [Compound 244] yielded a concentration for half-maximal inhibition (IC50) not above 10 nM.
Next, `N#Cc1c2c(cc3cc(-c4cccc(-c5cccc(Nc6nccc7cc(CN8CC[C@@H](O)C8)cnc67)c5Cl)c4Cl)oc13)[C@H](N1CC[C@@H](C(=O)O)C1)CC2` [Compound 245]: not above 10 nM; `Cc1c(Nc2nccc3cc(CN4CC[C@@H](O)C4)cnc23)cccc1-c1cccc(-c2cc3cc4c(c(C#N)c3o2)CC[C@H]4N2CC[C@@H](C(=O)O)C2)c1Cl` [Compound 246]: not above 10 nM; `Cc1c(-c2cc3cc4c(c(C#N)c3o2)CC[C@H]4N2CC[C@@H](C(=O)O)C2)cccc1-c1cccc(Nc2nccc3cc(CN4CC[C@@H](O)C4)cnc23)c1Cl` [Compound 247]: not above 10 nM.
As for `Cc1c(Nc2nccc3cc(CN4CC[C@@H](O)C4)cnc23)cccc1-c1cccc(-c2cc3cc4c(c(C#N)c3o2)CC[C@H]4N2CC[C@@H](C(=O)NS(=O)(=O)C3CC3)C2)c1C` [Compound 248], the 50% inhibitory concentration (IC50) was not above 10 nM.
`N#Cc1c2c(cc3cc(-c4cccc(-c5cccc(Nc6nccc7cc(CN8CC[C@@H](O)C8)cnc67)c5Cl)c4Cl)oc13)[C@H](N1CC[C@@H](C(=O)NS(=O)(=O)C3CC3)C1)CC2` [Compound 249] gave an IC50 not above 10 nM.
Next, `Cc1c(Nc2nccc3cc(CN4CC[C@@H](O)C4)cnc23)cccc1-c1cccc(-c2cc3cc4c(c(C#N)c3o2)CC[C@H]4N2CC[C@@H](C(=O)NS(=O)(=O)C3CC3)C2)c1Cl` [Compound 250]: not above 10 nM; `Cc1c(-c2cc3cc4c(c(C#N)c3o2)CC[C@H]4N2CC[C@@H](C(=O)NS(=O)(=O)C3CC3)C2)cccc1-c1cccc(Nc2nccc3cc(CN4CC[C@@H](O)C4)cnc23)c1Cl` [Compound 251]: not above 10 nM.
In the case of `Cc1c(Nc2nccc3cc(CN4CC[C@@H](O)C4)cnc23)cccc1-c1cccc(-c2cc3cc4c(c(C#N)c3o2)CC[C@H]4N2CC[C@@H](C(=O)NS(=O)(=O)C3(C)CC3)C2)c1C` [Compound 252], the IC50 was not above 10 nM.
`CC1(S(=O)(=O)NC(=O)[C@@H]2CCN([C@@H]3CCc4c3cc3cc(-c5cccc(-c6cccc(Nc7nccc8cc(CN9CC[C@@H](O)C9)cnc78)c6Cl)c5Cl)oc3c4C#N)C2)CC1` [Compound 253] came in with a half-inhibitory concentration (IC50) not above 10 nM.
`COc1nc(-c2cccc(-c3cccc(-c4cc5cc6c(c(C#N)c5o4)CC[C@H]6N4CC[C@@H](C(=O)O)C4)c3C)c2C)cnc1CN1CC[C@@H](O)C1` [Compound 256] gave an IC50 not above 10 nM.
Turning to `COc1nc(-c2cccc(-c3cccc(-c4cc5cc6c(c(C#N)c5o4)CC[C@H]6N4CC[C@@H](C(=O)O)C4)c3Cl)c2Cl)cnc1CN1CC[C@@H](O)C1` [Compound 257], the IC50 was not above 10 nM.
`COc1nc(-c2cccc(-c3cccc(-c4cc5cc6c(c(C#N)c5o4)CC[C@H]6N4CC[C@@H](C(=O)O)C4)c3Cl)c2C)cnc1CN1CC[C@@H](O)C1` [Compound 258] displayed an IC50 not above 10 nM.
In turn, `COc1nc(-c2cccc(-c3cccc(-c4cc5cc6c(c(C#N)c5o4)CC[C@H]6N4CC[C@@H](C(=O)O)C4)c3C)c2Cl)cnc1CN1CC[C@@H](O)C1` [Compound 259] showed an IC50 not above 10 nM.
Molecule `COc1nc(-c2cccc(-c3cccc(-c4cc5cc6c(c(C#N)c5o4)CC[C@H]6N4CC[C@@H](C(=O)NS(=O)(=O)C5CC5)C4)c3C)c2C)cnc1CN1CC[C@@H](O)C1` [Compound 260] yielded a half-inhibitory concentration (IC50) not above 10 nM.
`COc1nc(-c2cccc(-c3cccc(-c4cc5cc6c(c(C#N)c5o4)CC[C@H]6N4CC[C@@H](C(=O)NS(=O)(=O)C5CC5)C4)c3Cl)c2Cl)cnc1CN1CC[C@@H](O)C1` [Compound 261]: the IC50 is not above 10 nM.
`COc1nc(-c2cccc(-c3cccc(-c4cc5cc6c(c(C#N)c5o4)CC[C@H]6N4CC[C@@H](C(=O)NS(=O)(=O)C5CC5)C4)c3Cl)c2C)cnc1CN1CC[C@@H](O)C1` [Compound 262] registered a 50% inhibitory concentration (IC50) not above 10 nM.
As for `COc1nc(-c2cccc(-c3cccc(-c4cc5cc6c(c(C#N)c5o4)CC[C@H]6N4CC[C@@H](C(=O)NS(=O)(=O)C5CC5)C4)c3C)c2Cl)cnc1CN1CC[C@@H](O)C1` [Compound 263], the figure is not above 10 nM; as for `COc1nc(-c2cccc(-c3cccc(-c4cc5cc6c(c(C#N)c5o4)CC[C@H]6N4CC[C@@H](C(=O)NS(=O)(=O)C5(C)CC5)C4)c3C)c2C)cnc1CN1CC[C@@H](O)C1` [Compound 264], not above 10 nM; as for `COc1nc(-c2cccc(-c3cccc(-c4cc5cc6c(c(C#N)c5o4)CC[C@H]6N4CC[C@@H](C(=O)NS(=O)(=O)C5(C)CC5)C4)c3Cl)c2Cl)cnc1CN1CC[C@@H](O)C1` [Compound 265], not above 10 nM.
In turn, `COc1nc(-c2cccc(-c3cccc(-c4cc5cc6c(c(C#N)c5o4)CC[C@H]6N4CC[C@@H](C(=O)NS(=O)(=O)C5(C)CC5)C4)c3Cl)c2C)cnc1CN1CC[C@@H](O)C1` [Compound 266] yielded a half-inhibitory concentration (IC50) not above 10 nM.

Source of the values: patent US20220372031A1, “NOVEL TRICYCLIC AROMATIC HETEROCYCLIC COMPOUND, PREPARATION METHOD THEREFOR, PHARMACEUTICAL COMPOSITION AND APPLICATION THEREOF” (SHANGHAI LONGWOOD BIOPHARMACEUTICALS CO., LTD., priority 2019, published 2022).
